Laboratory results published in patent publication US8753691B2, “Antiviral colloidal silver composition” (priority 1999, dated 2014).
Converted amounts (≈) assume the structure as drawn. “And” between values parts separate entries of the source, which are not always exact repeats. Equal entries are not always repeated. Where two headings read alike, the source gives them in different places.

Key:
[1] = target: Moloney murine leukemia virus reverse transcriptase (MoMuLV) (Moloney murine leukemia virus, UniProt P03355); assay: Test of reverse transcriptase inhibition; conditions: 3 μl inhibitor; 37° C. 2 hours; AZT at 0.625 microgram/ml
[2] = system: S. pyogenes; assay: MIC/MBC broth microdilution; assay type: cell-based
[3] = system: S. mutans; assay: MIC/MBC broth microdilution; assay type: cell-based
[4] = system: S gordonii; assay: MIC/MBC broth microdilution; assay type: cell-based; conditions: for MIC: read-out: MIC (minimum inhibitory concentration)
[5] = system: S. pneumoniae; assay: MIC/MBC broth microdilution; assay type: cell-based
[6] = system: S. faecalis; assay: MIC/MBC broth microdilution; assay type: cell-based
[7] = system: S. aureus; assay: MIC/MBC broth microdilution; assay type: cell-based
[8] = system: P. aeruginosa; assay: MIC/MBC broth microdilution; assay type: cell-based
[9] = system: E. coli; assay: MIC/MBC broth microdilution; assay type: cell-based
[10] = system: E. aerogenes; assay: MIC/MBC broth microdilution; assay type: cell-based
[11] = system: S. typhimurium; assay: MIC/MBC broth microdilution; assay type: cell-based; conditions: for MBC: read-out: MBC (minimum bactericidal concentration)
[12] = system: S arizona; assay: MIC/MBC broth microdilution; assay type: cell-based; conditions: for MBC: read-out: MBC (minimum bactericidal concentration); for MIC: read-out: MIC (minimum inhibitory concentration)
[13] = system: S. boydii; assay: MIC/MBC broth microdilution; assay type: cell-based; conditions: for MBC: read-out: MBC (minimum bactericidal concentration)
[14] = system: K. pneumoniae; assay: MIC/MBC broth microdilution; assay type: cell-based
[15] = system: K. oxytoca; assay: MIC/MBC broth microdilution; assay type: cell-based
[16] = system: E. cloacae; assay: MIC/MBC broth microdilution; assay type: cell-based
[17] = system: Pseudomonas aeruginosa ATCC #15442
Protocol: (§1) At 30 second intervals, 0.5 ml of each challenge culture was added to the appropriate dilutions of phenol, agitated, and replaced into the water bath: After the appropriate exposure times of 5, 10, and 15 minutes, a loopful of suspension was removed from the assay tubes and transferred to tubes of letheen broth (LETH).

[18] = system: Salmonella choleraesuis ATCC #10708; conditions: 5, 10 or 15 min
Protocol: as §1

[19] = system: Staphylococcus aureus ATCC #6538
Protocol: as §1

Compound: Cc1cn([C@H]2C[C@H](N=[N+]=[N-])[C@@H](CO)O2)c(=O)[nH]c1=O [AZT, zidovudine (AZT)]
- % Inhibition (reverse transcriptase) [1]: 31.33% and 18.06%

Compound: CCN1CCN(C(=O)N[C@@H](C(=O)N[C@@H]2C(=O)N3C(C(=O)O)=C(CSc4nnnn4C)CS[C@H]23)c2ccc(O)cc2)C(=O)C1=O [Cefaperazone]
- MBC (minimum bactericidal concentration) [2]: 1.25 ppm
- MIC (minimum inhibitory concentration) [2]: 0.313 ppm
- MBC (minimum bactericidal concentration) [3]: > 5 ppm
- MIC (minimum inhibitory concentration) [3]: 1.25 ppm
- MBC (minimum bactericidal concentration) [4]: 1.25/1.25 ppm
- MIC (minimum inhibitory concentration) [4]: 1.25/1.25 ppm
- MBC (minimum bactericidal concentration) [5]: 0.313/0.313 ppm
- MIC (minimum inhibitory concentration) [5]: 0.313/0.313 ppm
- MIC (minimum inhibitory concentration) [6]: >5.0 ppm
- MBC (minimum bactericidal concentration) [7]: 5.0/5.0 ppm
- MIC (minimum inhibitory concentration) [7]: 5.0/5.0 ppm
- MBC (minimum bactericidal concentration) [8]: 5.0 ppm
- MIC (minimum inhibitory concentration) [8]: 2.5 ppm
- MBC (minimum bactericidal concentration) [9]: > 5.0 ppm
- MIC (minimum inhibitory concentration) [9]: 0.625 ppm
- MBC (minimum bactericidal concentration) [10]: > 5.0 ppm
- MIC (minimum inhibitory concentration) [10]: 2.92 ppm
- MBC (minimum bactericidal concentration) [11]: 2.5 ppm
- MIC (minimum inhibitory concentration) [11]: 1.25 ppm
- MBC (minimum bactericidal concentration) [12]: > 5.0 ppm
- MIC (minimum inhibitory concentration) [12]: 0.833 ppm
- MBC (minimum bactericidal concentration) ([13]; S. boydii): 0.625/0.625 ppm
- MIC (minimum inhibitory concentration) ([13]; S. boydii): 0.625/0.625 ppm
- MIC (minimum inhibitory concentration) [14]: >5.0 ppm
- MBC (minimum bactericidal concentration) [15]: > 5.0 ppm
- MIC (minimum inhibitory concentration) [15]: 1.25 ppm

Compound: CC[C@H]1OC(=O)[C@H](C)[C@@H](O[C@H]2C[C@@](C)(OC)[C@@H](O)[C@H](C)O2)[C@H](C)[C@@H](O[C@@H]2O[C@H](C)C[C@H](N(C)C)[C@H]2O)[C@](C)(O)C[C@@H](C)C(=O)[C@H](C)[C@@H](O)[C@]1(C)O [Erythromycin]
- MIC [4]: 0.005 mg/L (≈ 0.00681 µM)
- MBC [12]: > 5 mg/L
- MBC ([13]; S. boydii): > 5 mg/L
- MIC ([13]; S. boydii, read-out: MIC (minimum inhibitory concentration)): 5 mg/L (≈ 6.81 µM)

Compound: CC1COc2c(N3CCN(C)CC3)c(F)cc3c(=O)c(C(=O)O)cn1c23 (stereo not shown) [Ofloxacin]
- MBC ([4]; read-out: MBC (minimum bactericidal concentration)): 5 mg/L (≈ 13.8 µM)
- MIC [4]: 2.5 mg/L (≈ 6.92 µM)
- MBC ([10]; Klebsiella aerogenes, read-out: MBC (minimum bactericidal concentration)): 0.156 mg/L (≈ 0.432 µM)
- MIC ([10]; Klebsiella aerogenes, read-out: MIC (minimum inhibitory concentration)): 0.078 mg/L (≈ 0.216 µM)
- MBC ([11]; Salmonella enterica): 0.156 mg/L (≈ 0.432 µM)
- MIC ([11]; Salmonella enterica, read-out: MIC (minimum inhibitory concentration)): 0.078 mg/L (≈ 0.216 µM)
- MIC [12]: 0.078 mg/L (≈ 0.216 µM)
- MBC ([13]; S. boydii): 0.156 mg/L (≈ 0.432 µM)

Compound: CC1(C)S[C@@H]2[C@H](NC(=O)Cc3ccccc3)C(=O)N2[C@H]1C(=O)O [Penicillin G]
- MIC (minimum inhibitory concentration) [2]: >5.0 ppm
- MBC (minimum bactericidal concentration) [3]: > 5 ppm
- MIC (minimum inhibitory concentration) [3]: 0.521 ppm
- MBC (minimum bactericidal concentration) [4]: 0.039 ppm
- MIC (minimum inhibitory concentration) [4]: 0.009 ppm
- MBC (minimum bactericidal concentration) [5]: 0.019/0.019 ppm
- MIC (minimum inhibitory concentration) [5]: 0.019/0.019 ppm
- MBC (minimum bactericidal concentration) [6]: 5.0/>5.0 ppm
- MIC (minimum inhibitory concentration) [6]: 5.0/>5.0 ppm
- MBC (minimum bactericidal concentration) [7]: > 5.0 ppm
- MIC (minimum inhibitory concentration) [7]: 2.5 ppm
- MBC (minimum bactericidal concentration) [8]: > 5.0 ppm
- MIC (minimum inhibitory concentration) [8]: 0.13 ppm
- MIC (minimum inhibitory concentration) [9]: >5.0 ppm
- MIC (minimum inhibitory concentration) [10]: >5.0 ppm
- MIC (minimum inhibitory concentration) [16]: >5.0 ppm
- MIC (minimum inhibitory concentration) [11]: >5.0 ppm
- MIC (minimum inhibitory concentration) [12]: >5.0 ppm
- MIC (minimum inhibitory concentration) [13]: >5.0 ppm
- MIC (minimum inhibitory concentration) [14]: >5.0 ppm
- MIC (minimum inhibitory concentration) [15]: >5.0 ppm

Compound: CN(C)[C@@H]1C(O)=C(C(N)=O)C(=O)[C@@]2(O)C(O)=C3C(=O)c4c(O)cccc4[C@@](C)(O)[C@H]3C[C@@H]12 [Tetracycline]
- MBC ([11]; Salmonella enterica): > 5 mg/L
- MBC [12]: > 5 mg/L
- MIC [12]: 0.625 mg/L (≈ 1.41 µM)
- MBC ([13]; S. boydii): > 5 mg/L
- MBC ([15]; Klebsiella oxytoca, read-out: MBC (minimum bactericidal concentration)): > 5 mg/L

Compound: Oc1ccccc1 [phenol]
- growth after phenol treatment ([17]; 1:80 phenol, 5 or 10 min): showed growth
- growth after phenol treatment ([17]; 1:80 phenol, 15 min): no growth
- growth after phenol treatment ([17]; 1:90 phenol, 5, 10 or 15 min): showed growth
- growth after phenol treatment ([18]; 1:90 phenol): no growth
- growth after phenol treatment ([18]; 1:100 phenol): showed growth
- growth after phenol treatment ([19]; 1:60 phenol, 5 or 10 min): showed growth
- growth after phenol treatment ([19]; 1:60 phenol, 15 min): no growth
- growth after phenol treatment ([19]; 1:70 phenol, 5, 10 or 15 min): showed growth
